Reference: patent US20260184691A1, “INHIBITORS AND DEGRADERS OF PIP4K PROTEIN” (Larkspur Biosciences, Inc., priority 2022, published 2026)

Biological target: T1, Human PIP4K2C (Homo sapiens, UniProt Q8TBX8)
T1 construct: purchased Eurofins DiscoverX 87-0007-1094
T1 sequence (Q8TBX8 1-421): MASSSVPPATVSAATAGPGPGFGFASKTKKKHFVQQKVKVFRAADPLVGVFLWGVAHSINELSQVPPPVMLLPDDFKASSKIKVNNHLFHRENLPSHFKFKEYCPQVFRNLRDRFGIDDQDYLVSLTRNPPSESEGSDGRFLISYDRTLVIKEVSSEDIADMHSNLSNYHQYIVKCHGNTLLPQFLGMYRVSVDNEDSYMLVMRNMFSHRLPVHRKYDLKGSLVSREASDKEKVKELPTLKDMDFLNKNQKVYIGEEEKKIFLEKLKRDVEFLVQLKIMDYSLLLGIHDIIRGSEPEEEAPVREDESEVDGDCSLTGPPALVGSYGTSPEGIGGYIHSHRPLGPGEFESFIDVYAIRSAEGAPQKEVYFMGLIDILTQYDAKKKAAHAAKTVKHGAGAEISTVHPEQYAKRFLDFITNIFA
Assay: Enzyme binding assay (KINOMEscan), active site-directed competition binding
Details: 11-point dose response, duplicate, top concentration 5 micromolar; read-out: Pip4k2c Kd: IC50
Experimental: PIP4K2C binding constants disclosed herein were determined using the proprietary Human PIP4K2C binding assay (Catalog number 87-0007-1094, Eurofins DiscoverX, San Diego, CA). This assay measures active site-directed competition binding to an immobilized ligand (see https://doi.org/10.1038/nbt1068, herein incorporated by reference in its entirety). Experiments were conducted using an 11-point dose response curve, in duplicate, with a top starting concentration of 5 micromolar; the Levenberg-Marquardt algorithm was used to fit a Hill equation to dose-response data to calculate IC50 values (see Table 5).

| Structure (SMILES) | IC50 [nM] |
| --- | --- |
| O=C1CCCN1c1cncc(Nc2ncc(Cl)c(-c3cccc(C4CCC4)c3)n2)c1 [Compound 39, 1-(5-((5-chloro-4-(3-cyclobutylphenyl)pyrimidin-2-yl)amino)pyridin-3-yl)pyrrolidin-2-one] | < 500 |
| COc1ccc(-c2nc(Nc3cncc(N4CCCC4=O)c3)ncc2Cl)cc1-c1ccccc1 [Compound 8, 1-(5-((5-chloro-4-(6-methoxy-[1,1′-biphenyl]-3-yl)pyrimidin-2-yl)amino)pyridin-3-yl)pyrrolidin-2-one] | < 500 |
| O=C1CCCN1c1cncc(Nc2ncc(Cl)c(N3CCCC(n4ccccc4=O)C3)n2)c1 (stereo not drawn) [Compound 156, 1-(1-(5-chloro-2-((5-(2-oxopyrrolidin-1-yl)pyridin-3-yl)amino)pyrimidin-4-yl)piperidin-3-yl)pyridin-2(1H)-one] | < 500 |
| O=C1CCCN1c1cncc(Nc2ncc(Cl)c(-c3cc(-c4ccccc4)[nH]n3)n2)c1 [Compound 49, 1-(5-((5-chloro-4-(5-phenyl-1H-pyrazol-3-yl)pyrimidin-2-yl)amino)pyridin-3-yl)pyrrolidin-2-one] | < 500 |
| O=C1CCCN1c1cncc(Nc2ncc(Cl)c(-c3cccc(C4CCCNC4)c3)n2)c1 (stereo not drawn) [Compound 30, 1-(5-((5-chloro-4-(3-(piperidin-3-yl)phenyl)pyrimidin-2-yl)amino)pyridin-3-yl)pyrrolidin-2-one] | < 500 |
| Cc1cc(-c2nc(Nc3cncc(N4CCCC4=O)c3)ncc2Cl)ccn1 [Compound 105, 1-(5-((5-chloro-4-(2-methylpyridin-4-yl)pyrimidin-2-yl)amino)pyridin-3-yl)pyrrolidin-2-one] | 500 to 1000 |
| O=C1CCCN1c1cncc(Nc2ncc(Cl)c(-c3cccc(Oc4ccccc4)c3)n2)c1 [Compound 142, 1-(5-((5-chloro-4-(3-phenoxyphenyl)pyrimidin-2-yl)amino)pyridin-3-yl)pyrrolidin-2-one] | < 500 |
| O=C1CCCN1c1cncc(Nc2ncc(Cl)c(-c3cccc(-c4ccc(Cl)c(Cl)c4)c3)n2)c1 [Compound 2, 1-(5-((5-chloro-4-(3′,4′-dichloro-[1,1′-biphenyl]-3-yl)pyrimidin-2-yl)amino)pyridin-3-yl)pyrrolidin-2-one] | < 500 |
| O=C1CCCN1c1cncc(Nc2cc(-c3ccc(F)cc3F)c(Cl)cn2)c1 [Compound 104, 1-(5-((5-chloro-4-(2,4-difluorophenyl)pyridin-2-yl)amino)pyridin-3-yl)pyrrolidin-2-one] | 500 to 1000 |
| O=C1CCCN1c1cncc(Nc2ncc(Cl)c(-c3cccc(Cl)c3)n2)c1 [Compound 92, 1-(5-((5-chloro-4-(3-chlorophenyl)pyrimidin-2-yl)amino)pyridin-3-yl)pyrrolidin-2-one] | < 500 |
| CC(=O)N1CCC2(CC1)CCN(c1cncc(Nc3ncc(Cl)c(-c4cccc(-c5ccccc5)c4)n3)c1)C2=O [Compound 133, 8-acetyl-2-[5-[[5-chloro-4-(3-phenylphenyl)pyrimidin-2-yl]amino]-3-pyridyl]-2,8-diazaspiro[4.5]decan-1-one] | < 500 |
| O=C(C1CCCC1)N1CCCC(c2nc(Nc3cncc(N4CCCC4=O)c3)ncc2Cl)C1 (stereo not drawn) [Compound 146, 1-(5-((5-chloro-4-(1-(cyclopentanecarbonyl)piperidin-3-yl)pyrimidin-2-yl)amino)pyridin-3-yl)pyrrolidin-2-one] | < 500 |
| O=C1CCCN1c1cncc(Nc2ncc(Cl)c(N3CCOCC3)n2)c1 [Compound 107, 1-(5-((5-chloro-4-morpholinopyrimidin-2-yl)amino)pyridin-3-yl)pyrrolidin-2-one] | < 500 |
| O=C1CCCN1c1cncc(Nc2ncc(Cl)c(N3CCCC(O)C3)n2)c1 (stereo not drawn) [Compound 99] | < 500 |
| O=C1CCCN1c1cncc(Nc2ncc(Cl)c(-c3cccc(-c4ccccc4Cl)c3)n2)c1 [Compound 14, 1-(5-((5-chloro-4-(2′-chloro-[1,1′-biphenyl]-3-yl)pyrimidin-2-yl)amino)pyridin-3-yl)pyrrolidin-2-one] | < 500 |
| O=C1CCCN1c1cncc(Nc2ncc(Cl)c(-c3cnn(C4CCCCC4)c3)n2)c1 [Compound 139, 1-[5-[[5-chloro-4-(1-cyclohexylpyrazol-4-yl)pyrimidin-2-yl]amino]-3-pyridyl]pyrrolidin-2-one] | < 500 |
| CC(=O)N1CC2(CC(=O)N(c3cncc(Nc4ncc(Cl)c(-c5cccc(-c6ccccc6)c5)n4)c3)C2)C1 [Compound 36, 6-(5-((4-([1,1′-biphenyl]-3-yl)-5-chloropyrimidin-2-yl)amino)pyridin-3-yl)-2-acetyl-2,6-diazaspiro[3.4]octan-7-one] | < 500 |

Other lines, results leading:

| IC50 [nM] | Structure (SMILES) |
| --- | --- |
| < 500 | O=C1CCCN1c1cncc(Nc2ncc(Cl)c(-c3cccc(-c4ccc(Cl)cc4)c3)n2)c1 [Compound 4, 1-(5-((5-chloro-4-(4′-chloro-[1,1′-biphenyl]-3-yl)pyrimidin-2-yl)amino)pyridin-3-yl)pyrrolidin-2-one] |
| < 500 | COc1ccc(-c2ccccc2)cc1-c1nc(Nc2cncc(N3CCCC3=O)c2)ncc1Cl [Compound 21, 1-(5-((5-chloro-4-(4-methoxy-[1,1′-biphenyl]-3-yl)pyrimidin-2-yl)amino)pyridin-3-yl)pyrrolidin-2-one] |
| 500 to 1000 | O=C1CCCN1c1cncc(Nc2ncc(Cl)c(N3CCC(C4CCCCC4)C3)n2)c1 (stereo not drawn) [Compound 45, 1-(5-((5-chloro-4-(3-cyclohexylpyrrolidin-1-yl)pyrimidin-2-yl)amino)pyridin-3-yl)pyrrolidin-2-one] |
| < 500 | Cc1ccc(-c2cccc(-c3nc(Nc4cncc(N5CCCC5=O)c4)ncc3Cl)c2)cc1 [Compound 3, 1-(5-((5-chloro-4-(4′-methyl-[1,1′-biphenyl]-3-yl)pyrimidin-2-yl)amino)pyridin-3-yl)pyrrolidin-2-one] |
| < 500 | O=C1CCCN1c1cncc(Nc2ncc(Cl)c(N3CCOC(c4ccccc4)C3)n2)c1 (stereo not drawn) [Compound 41, 1-[5-[[5-chloro-4-(2-phenylmorpholin-4-yl)pyrimidin-2-yl]amino]-3-pyridyl]pyrrolidin-2-one] |
| < 500 | O=C1CCCN1c1cncc(Nc2ncc(Cl)c(-c3cccc(N4CCCC4)c3)n2)c1 [Compound 46, 1-(5-((5-chloro-4-(3-(pyrrolidin-1-yl)phenyl)pyrimidin-2-yl)amino)pyridin-3-yl)pyrrolidin-2-one] |
| < 500 | O=C1CCCN1c1cncc(Nc2ncc(Cl)c(-c3ccc(Cl)c(-c4ccccc4)c3)n2)c1 [Compound 6, 1-(5-((5-chloro-4-(6-chloro-[1,1′-biphenyl]-3-yl)pyrimidin-2-yl)amino)pyridin-3-yl)pyrrolidin-2-one] |
| < 500 | O=C1CCCN1c1cncc(Nc2ncc(Cl)c(-c3cccc(C4CCCCC4)c3)n2)c1 [Compound 19, 1-(5-((5-chloro-4-(3-cyclohexylphenyl)pyrimidin-2-yl)amino)pyridin-3-yl)pyrrolidin-2-one] |
| < 500 | CC(=O)N1CCC(n2cc(-c3nc(Nc4cncc(N5CCCC5=O)c4)ncc3Cl)cn2)CC1 [Compound 48, 1-(5-((4-(1-(1-acetylpiperidin-4-yl)-1H-pyrazol-4-yl)-5-chloropyrimidin-2-yl)amino)pyridin-3-yl)pyrrolidin-2-one] |
| < 500 | O=C1CCCN1c1cncc(Nc2ncc(Cl)c(-c3cnn(-c4ccccc4)c3)n2)c1 [Compound 140, 1-(5-((5-chloro-4-(1-phenyl-1H-pyrazol-4-yl)pyrimidin-2-yl)amino)pyridin-3-yl)pyrrolidin-2-one] |
